Data on four compounds can be found in patent publication US8124581B2, “Methods for treating breast cancer using NRIF3 related molecules” (New York University, priority 2004, dated 2012).

Test [1] deals with T-47D cells. In words: Modulation of NRIF3- or DD1-mediated apoptosis in T-47D cells (TUNEL). The format is cell-based, human. The method, then:
(§1) Cell culture and transfection conditions. All breast cancer cell lines were maintained in DMEM (GIBCO-BRL, Life Technologies) supplemented with 10% fetal bovine serum (FBS). Other cells were cultured in DMEM supplemented with either 10% FBS or 10% Hyclone defined/supplemented bovine calf serum. For most of the transient transfections, T-47D cells were plated at a density of 3×10^4 cells/well on coverslips in 24-well tissue culture plates. About 20 h later, the cells were transfected with indicated plasmid(s) by Genefect transfection reagent (Molecula, USA) according to manufacturer's protocol. Generally, the amount of plasmids used in transfections was the following: GFP or GFP-fusion 300-500 ng, Bcl-2 or Bcl-xL 1-1.5 μg, AIF-GFP 500 ng, Gal4-DD1, GAl4-DD3 or Gal4 control 0.5-1 μg. After transfection, cells were incubated in DMEM/10% FBS medium for 5 h to 24 h before being harvested and processed for appropriate analyses. Transient transfection of other breast cancer cell lines were carried out similarly, except that the transfection reagent used was Lipofectamine 2000 (Life technologies). All other cells were transfected using Geneporter 2 (Gene Therapy Systems). When indicated, the following compounds were included in the medium: all-trans retinoic acid (100 nM), etopside (100 μM), zVAD-fmk (100 μM), zVDVAD-fmk (20 μM), TNFα (10 ng/ml) and cycloheximide (10 μg/ml).
siRNA studies. A small interference RNA (siRNA) duplex that efficiently silences human caspase-2 expression has been previously described (27), and was purchased from Dharmacon. The siRNA was dissolved at 20 pmol/μl in H2O. T-47D cells were plated at the density of 1.5×10^5 cells/well in 6-well plates the day before being transfected with siRNA. Transfection was carried out using Oligofectamine (Invitrogen), with 12 μl of dissolved siRNA and 12 μl of Oligofectamine reagent. Cells were fed with additional DMEM/10% FBS the second day, and harvested about 42 h after siRNA transfection. […] The harvested cells were then re-plated on cover-slips in 24-well plates as described earlier, and incubated for a few hours to let attachment occur. Cells were then transfected with the indicated GFP or GFP-fusion vectors as described earlier or treated with etoposide (100 μM). Cells were harvested about 20-24 h later and processed for appropriate assays. To document caspase-2 knock down, total lysates from siRNA transfected or control cells were quantified for protein concentrations. Equal amount of proteins were then subjected to SDS-PAGE, followed by Western analysis using a monoclonal antibody against caspase-2 (11B4, from Alexis).
Apoptosis assays. Cells plated on cover-slips in 24-well tissue culture plates were transfected and/or treated with appropriate compounds as indicated. Generally, cells were harvested within 20-24 h and processed for TUNEL and/or Annexin V assays. For Annexin V assay, cells were washed 3× with PBS and assayed using ApoAlert Nitric Oxide/Annexin V Dual Sensor Kit (BD Biosciences, USA) according to manufacturer's protocol. […] For quantitative analysis, fields consisting of at least several hundred cells were scanned, and a number of representative fields were photographed using GFP and rhodamine filters. Green and red cells from the same field were then counted. Generally, about one hundred of total green cells were counted for each data point. The percent of green cells counted that are also red were then calculated.

Test [2] deals with T-47D cells. Kind of test: TUNEL apoptosis assay of transfected T-47D cells. It counts as cell-based, human. The settings on record: T-47D cells transfected with expression vector. The method, then: as §1, with “Transient transfection of other breast cancer cell lines were carried out similarly, except that the transfection reagent used was Lipofectamine 2000 (Life technologies). All other cells were transfected using Geneporter 2 (Gene Therapy Systems). When indicated, the following compounds were included in the medium: all-trans retinoic acid (100 nM), etopside (100 μM), zVAD-fmk (100 μM), zVDVAD-fmk (20 μM), TNFα (10 ng/ml) and cycloheximide (10 μg/ml).” left out
(§2) Apoptosis assays. […] For quantitative analysis, fields consisting of at least several hundred cells were scanned, and a number of representative fields were photographed using GFP and rhodamine filters. Green and red cells from the same field were then counted. Generally, about one hundred of total green cells were counted for each data point. The percent of green cells counted that are also red were then calculated.

For a further test, the system named is AIF-GFP. In words: AIF-GFP translocation from mitochondria to nucleus in T-47D cells. The format is cell-based, human. The settings on record: as early as 5 h after transfection. The protocol: as §1, with “Transient transfection of other breast cancer cell lines were carried out similarly, except that the transfection reagent used was Lipofectamine 2000 (Life technologies). All other cells were transfected using Geneporter 2 (Gene Therapy Systems). When indicated, the following compounds were included in the medium: all-trans retinoic acid (100 nM), etopside (100 μM), zVAD-fmk (100 μM), zVDVAD-fmk (20 μM), TNFα (10 ng/ml) and cycloheximide (10 μg/ml).” left out
as §2

Another test deals with MCF-7 cells. Kind of test: TUNEL apoptosis assay of transfected MCF-7 cells. It counts as cell-based, human. To be noted: MCF-7 (ER+). The method, then: as §1, with “Transient transfection of other breast cancer cell lines were carried out similarly, except that the transfection reagent used was Lipofectamine 2000 (Life technologies). All other cells were transfected using Geneporter 2 (Gene Therapy Systems). When indicated, the following compounds were included in the medium: all-trans retinoic acid (100 nM), etopside (100 μM), zVAD-fmk (100 μM), zVDVAD-fmk (20 μM), TNFα (10 ng/ml) and cycloheximide (10 μg/ml).” left out
as §2

A further test concerns MB-MDA-231 cells. Kind of test: TUNEL apoptosis assay of transfected MB-MDA-231 cells. It counts as cell-based, human. The settings on record: MB-MDA-231 (ER−). The protocol:
as §1, with “Transient transfection of other breast cancer cell lines were carried out similarly, except that the transfection reagent used was Lipofectamine 2000 (Life technologies). All other cells were transfected using Geneporter 2 (Gene Therapy Systems). When indicated, the following compounds were included in the medium: all-trans retinoic acid (100 nM), etopside (100 μM), zVAD-fmk (100 μM), zVDVAD-fmk (20 μM), TNFα (10 ng/ml) and cycloheximide (10 μg/ml).” left out
as §2

In a further test the test system is MB-MDA-435 cells. In words: TUNEL apoptosis assay of transfected MB-MDA-435 cells. It counts as cell-based, human. To be noted: MB-MDA-435 (ER−). The method, then:
as §1, with “Transient transfection of other breast cancer cell lines were carried out similarly, except that the transfection reagent used was Lipofectamine 2000 (Life technologies). All other cells were transfected using Geneporter 2 (Gene Therapy Systems). When indicated, the following compounds were included in the medium: all-trans retinoic acid (100 nM), etopside (100 μM), zVAD-fmk (100 μM), zVDVAD-fmk (20 μM), TNFα (10 ng/ml) and cycloheximide (10 μg/ml).” left out
as §2

In test [3] the test system is ER+ derivative of MB-MDA-231. In words: TUNEL apoptosis assay of transfected ER+ derivative of MB-MDA-231. It counts as cell-based, human. The protocol: as §1, with “Transient transfection of other breast cancer cell lines were carried out similarly, except that the transfection reagent used was Lipofectamine 2000 (Life technologies). All other cells were transfected using Geneporter 2 (Gene Therapy Systems). When indicated, the following compounds were included in the medium: all-trans retinoic acid (100 nM), etopside (100 μM), zVAD-fmk (100 μM), zVDVAD-fmk (20 μM), TNFα (10 ng/ml) and cycloheximide (10 μg/ml).” left out
as §2

A further test has as its system HBL100 cells. Kind of test: TUNEL apoptosis assay of transfected HBL100 cells. The format is cell-based. To be noted: HBL100, non-malignant immortalized breast epithelial cell line. The method, then:
as §1, with “Transient transfection of other breast cancer cell lines were carried out similarly, except that the transfection reagent used was Lipofectamine 2000 (Life technologies). All other cells were transfected using Geneporter 2 (Gene Therapy Systems). When indicated, the following compounds were included in the medium: all-trans retinoic acid (100 nM), etopside (100 μM), zVAD-fmk (100 μM), zVDVAD-fmk (20 μM), TNFα (10 ng/ml) and cycloheximide (10 μg/ml).” left out
as §2

For test [4], the system named is HeLa cells. In words: TUNEL apoptosis assay of transfected HeLa cells. The format is cell-based. The method, then: as §1, with “Transient transfection of other breast cancer cell lines were carried out similarly, except that the transfection reagent used was Lipofectamine 2000 (Life technologies). All other cells were transfected using Geneporter 2 (Gene Therapy Systems). When indicated, the following compounds were included in the medium: all-trans retinoic acid (100 nM), etopside (100 μM), zVAD-fmk (100 μM), zVDVAD-fmk (20 μM), TNFα (10 ng/ml) and cycloheximide (10 μg/ml).” left out
as §2

In another test the test system is 293. In words: TUNEL apoptosis assay of transfected 293 cells. It counts as cell-based. The protocol: as §1, with “Transient transfection of other breast cancer cell lines were carried out similarly, except that the transfection reagent used was Lipofectamine 2000 (Life technologies). All other cells were transfected using Geneporter 2 (Gene Therapy Systems). When indicated, the following compounds were included in the medium: all-trans retinoic acid (100 nM), etopside (100 μM), zVAD-fmk (100 μM), zVDVAD-fmk (20 μM), TNFα (10 ng/ml) and cycloheximide (10 μg/ml).” left out
as §2

In a further test the test system is COS-1. Kind of test: TUNEL apoptosis assay of transfected COS-1 cells. The format is cell-based. The method, then:
as §1, with “Transient transfection of other breast cancer cell lines were carried out similarly, except that the transfection reagent used was Lipofectamine 2000 (Life technologies). All other cells were transfected using Geneporter 2 (Gene Therapy Systems). When indicated, the following compounds were included in the medium: all-trans retinoic acid (100 nM), etopside (100 μM), zVAD-fmk (100 μM), zVDVAD-fmk (20 μM), TNFα (10 ng/ml) and cycloheximide (10 μg/ml).” left out
as §2

The test system of the next test is UOK-145. Kind of test: TUNEL apoptosis assay of transfected UOK-145 cells. It counts as cell-based. The protocol:
as §1, with “Transient transfection of other breast cancer cell lines were carried out similarly, except that the transfection reagent used was Lipofectamine 2000 (Life technologies). All other cells were transfected using Geneporter 2 (Gene Therapy Systems). When indicated, the following compounds were included in the medium: all-trans retinoic acid (100 nM), etopside (100 μM), zVAD-fmk (100 μM), zVDVAD-fmk (20 μM), TNFα (10 ng/ml) and cycloheximide (10 μg/ml).” left out
as §2

For another test, the system named is GH4C1. In words: TUNEL apoptosis assay of transfected GH4C1 cells. The format is cell-based. The protocol:
as §1, with “Transient transfection of other breast cancer cell lines were carried out similarly, except that the transfection reagent used was Lipofectamine 2000 (Life technologies). All other cells were transfected using Geneporter 2 (Gene Therapy Systems). When indicated, the following compounds were included in the medium: all-trans retinoic acid (100 nM), etopside (100 μM), zVAD-fmk (100 μM), zVDVAD-fmk (20 μM), TNFα (10 ng/ml) and cycloheximide (10 μg/ml).” left out
as §2

Test [5] relates to HeLa cells. In words: Apoptosis of HeLa cells treated with TNFα and cycloheximide. It counts as cell-based. To be noted: same dose (100 uM); data not shown. The protocol: as §1
Setting [6] is: 100 uM inhibitor prior to and after transfection, T-47D.

“Also recorded” adds a separate entry of the source. Where a SMILES comes first, the peptide text is derived from it. The star is where a group is joined. Cbz = O=C(OCc1ccccc1)*; CH2F = FC*

For the compound `COC(=O)C[C@H](NC(=O)[C@H](C)NC(=O)[C@@H](NC(=O)[C@H](CC(=O)OC)NC(=O)[C@@H](NC(=O)OCc1ccccc1)C(C)C)C(C)C)C(=O)CF` [zVDVAD-fmk] (Cbz-VD(OMe)VAD(OMe)-CH2F), in the test on T-47D cells [1] (T-47D, 20 μM in medium, data not shown), the “effect of caspase-2 chemical inhibitor on DD1-induced apoptosis” value is reported as “efficiently blocked”.
As for “Bcl-2: anti-apoptotic Bcl-2 family protein co-expressed from a vector”, the “effect of co-expression on DD1-mediated apoptosis” value in the test with T-47D cells [1] (co-expressed with GFPNLS-DD1 in T-47D) was “significantly inhibited”.
As for “DD1: death domain 1, residues 20-50 of NRIF3 (SEQ ID NO:11), co-resides with transrepression domain RepD1 (PSKITRKKSVITYSPTTGTCQMSLFASPTSS; sequence of DD1)”, the “induction of apoptosis (TUNEL and/or Annexin V)” value is given as “efficient apoptosis; also recorded: underwent rapid apoptosis” with T-47D cells [2] and “efficiently induced death” in the test with T-47D cells [2] (listed as RepD1). Further, the “sub-cellular location of AIF-GFP upon co-expression” value with AIF-GFP is recorded as “translocation of AIF-GFP from mitochondria to the nucleus”. Also, the induction of apoptosis entry with MCF-7 cells is reported as “efficient apoptosis”; with MB-MDA-231 cells it was “efficient apoptosis”; in the test on MB-MDA-435 cells, “efficient apoptosis”; in test [3], “efficient apoptosis”; in the test with HBL100 cells, “efficient apoptosis”; with HeLa cells [4] it was “did not lead to apoptosis; also recorded: no detectable cell death”. For the same compound, the induction of apoptosis entry in the test with 293 is listed as “did not lead to apoptosis; also recorded: no detectable cell death”; in the test with COS-1, “did not lead to apoptosis”; in the test with UOK-145, “did not lead to apoptosis”; with GH4C1, “did not lead to apoptosis”.
With `COC(=O)C[C@H](NC(=O)[C@H](C)NC(=O)[C@@H](NC(=O)OCc1ccccc1)C(C)C)C(=O)CF` [zVAD-fmk] (Cbz-Val-Ala-Asp(OMe)-CH2F), in the test with T-47D cells [1] (setting [6]), the “effect on apoptosis mediated by GFP-NRIF3” value is listed as “did not inhibit apoptosis” and the “effect on apoptosis mediated by GFPNLS-DD1” value was “did not inhibit apoptosis”. The “cell death caused by inhibitor alone” value in the test with T-47D cells [1] (T-47D, no transfected death construct, data not shown) was “did not cause cell death”. Besides, the “effect on apoptosis of HeLa cells treated with TNFα and cycloheximide” value in the test with HeLa cells [5] was “significantly inhibit apoptosis”.
